System: CAPAN2 cells
Assay: WST-1 colorimetric cell viability assay in CAPAN2 cells
Type: cell-based, human
Conditions: for IC20 / IC50: Homo sapiens, Capan-2, CAPAN2 cell survival; for cell death: at 300 nM, 48 hrs
Method: The human pancreatic cancer cell line CAPAN2, was purchased from the American Type Culture Collection (ATCC; Manassas, Va.). Cells were grown in McCoy's Modified 5A media supplemented with 10% FCS, 1× penicillin/streptomycin and 1× amphotericin. For testing, cells were released from the dishes by treatment with PBS (without calcium) for ˜30 min followed by 0.25% trypsin-EDTA for 5 minutes at 37 C. Cells were collected in a 15 ml centrifuge tube and spun down in a clinical centrifuge for 5 min and then re-suspended in 1 ml of fresh media and the cells were counted using a hemocytometer. Cells (1×10^3-5×10^3) were then seeded into 96-well plates in 100 μL of media and the cells were incubated for 48 hours. After 48 hours, the media was replaced and the cells were re-incubated for another 24 hours prior to treatment with the drugs.
Stock drug solutions were prepared in complete media from master stock solutions prepared in DMSO according to the manufacturer's instructions. Using these stock solutions, 1:1, 2:1, 5:1, and 10:1 volume-volume (v/v) mixtures of regorafenib and trametinib were prepared. These mixtures were then two-fold serially diluted to generate a range of 20 concentrations in each case. The cells were incubated in drug mixtures for 48-72 hours before cell viability assay/assessment.
Cell viability was determined using a WST-1 colorimetric cell proliferation assay (Roche), according to manufacturer's instructions. The stable tetrazolium salt WST-1 is cleaved to a soluble formazan by a complex cellular mechanism that occurs primarily at the cell surface. This reduction is largely dependent on the glycolytic production of NAD(P)H in viable cells. Therefore, the amount of formazan dye formed, and estimated using a spectrophotometer (BIO-TEK 340, BIOTEK) directly correlates to the number of metabolically active cells in the culture. All testing points were done at least in triplicate.

[1] = monotherapy, two-fold serial dilution 2 nM to 1 mM, 48-72 hours

Nc1ccn([C@@H]2O[C@H](CO)[C@@H](O)C2(F)F)c(=O)n1 [gemcitabine]
effect on CAPAN2 cell survival (in words) (CAPAN2 cells, 48-72 hours): little, if any, effect on cell survival | maximum decrease in cell viability (CAPAN2 cells, concentration of 1 mM, 48-72 hours): −30% | IC20 [1]: 111000 nM

CNC(=O)c1cc(Oc2ccc(NC(=O)Nc3ccc(Cl)c(C(F)(F)F)c3)c(F)c2)ccn1 [regorafenib]
effect on CAPAN2 cell survival (in words) (CAPAN2 cells, 48-72 hours): significant reduction in cell survival | cell death (CAPAN2 cells): −2% | IC50 (2 nM to 1 mM): 7100 nM | IC20 [1]: 2000 nM

CC(=O)Nc1cccc(-n2c(=O)n(C3CC3)c(=O)c3c(Nc4ccc(I)cc4F)n(C)c(=O)c(C)c32)c1 [trametinib]
cell death (CAPAN2 cells): −10% | IC50 (100 μM to 0.2 nM, 48-72 hours): 28 nM | IC20 (48-72 hours): 4 nM
